Read-outs that look alike come from different tables or passages of the source. One block for each compound: values may come before it.
Tests used:
[1] = tested on: LN229 (human glioblastoma); assay: Proliferation assay (MTT), LN229 cells; type: cell-based; conditions: LN-229, 72 h, 10% FBS
Protocol: (§1) Cells were maintained in monolayer culture with the corresponding media, supplemented with 5% fetal bovine serum (FBS) previously inactivated with heat, 2 mM glutamine and […] gentamicine.
(§2) The cells were treated for 72 hours in the presence of FBS 10% with different doses of the compounds in 96 wells at a 2500 cell/well density. The cell growth was estimated by MTT test, for which to the cell monolayers was added MTT, incubated and resuspended in DMSO. Finally, the number of cells was estimated by measuring the absorbance values at 570 nm.
(§3) Compound (65) as a representative example of Rac1 inhibitor compounds according to the present invention was tested in cell proliferation assays performed with following cancer cell lines F3II (murine mammary carcinoma), 3LL (murine lung carcinoma), LN229 (human glioblastoma), MCF7 (human mammary carcinoma), H125 (human lung carcinoma), PC3 (human prostate adenocarcinoma) and MDA-MB-231 (human mammary carcinoma).
as §2, with “trated” for “treated”

[2] = tested on: F3II mammary carcinoma cells; assay: Antimetastatic effect, metastatic lung colonization by F3II cells in mice; type: in vivo; conditions: 25 mg/kg/day i.p., days 0 to 21, F3II cells i.v., BALB/c mice, FIG. 9
Protocol: Specific pathogen-free female BALB/c inbred mice from UNLP (Buenos Aires, Argentina), with an age of 8-10 weeks and a average weight of 20 g, were used. They were housed in plastic cages under standard conditions and had access to rodent chow and water ad libitum. On the designated day 0 of the experiment, F3II mammary carcinoma cells were injected into the lateral tail vein of unanesthetized mice at a concentration of 2×10^5 viable cells/0.3 ml DMEM/mice. At day 21, animals were sacrificed by cervical dislocation and necropsied. To investigate the presence of lung metastasis, lungs were removed, fixed in Bouin's solution and the number of surface nodules was determined under a dissecting microscope.
(§4) To study the effect of compound (25) on metastatic lung colonization, mice were injected i.p at daily doses of 25 mg/kg body weight from days 0 to 21.

[3] = Tolerability and animal weight in mice; type: in vivo; conditions: adult female BALB/c mice, 25 mg/kg/day i.p.
Protocol: as §4

[4] = biological target: T1, Rac1 (Homo sapiens, UniProt P63000); assay: Pull-Down assay of intracellular active Rac levels (Rac-GTP) in LN229 cells; type: cell-based; conditions: 10 μM, EGF 100 ng/ml, FIG. 3
T1 construct: endogenous in cells; host or cells: LN229 (human glioblastoma)
Protocol: This assay consists in the determination of inhibition power of the compounds of the invention over the intracellular active Rac1 levels (Rac-GTP). For determining the levels of Rac-GTP, the “Pull-Down” assay was used, which is based in the conformation bond of Rac-GTP to the p21 domain of PAK1 protein, which is the direct effector of Rac-GTP (Wanf H. et al.; J. Biol. Che. 2002, 277: 4541-4550).
LN229 cells (human glioblastoma) were seeded in 6-well cell culture plaques and were kept in absence of FBS for 48 hours (starvation). Afterwards, they were treated with compounds (25) and (65) and they were stimulated for 15 minutes with EGF (100 ng/ml), washed with phosphate buffered saline (PBS) at low temperature and lysated in a buffer containing 8 μg of the fusion protein GST-PBD, […] Tris-HCl, pH 7.5, […] DTT, 5 mM MgCl2, 150 mM NaCl, 0.5% NP-40, 5 mM β-glicerophosphate and protease inhibitors (5 μg/ml 4-(2-aminoethyl)bencenesulfonyl fluoride, 5 μg (ml leupeptin, 5 μg/ml aprotinin and 1 μg/ml pepstatin A). The lysates were centrifuged at 14,000×g (4° C., 10 min) and then incubated with Glutation-Agarose Beads (GAB, Amersham Pharmacia) previously fitted with GST-Pak at 4° C. for 1 hour. After washing, the GABs were boiled for 5 minutes in loading buffer. […] The total Rac levels were analyzed in a similar way from aliquots taken from the cell lysate.

[5] = tested on: MDA-MB-231 (human mammary carcinoma); assay: Proliferation assay (MTT), MDA-MB-231 cells; type: cell-based; conditions: 72 h, 10% FBS
Protocol: as §1, §2, §3

[6] = tested on: F3II (murine mammary carcinoma); assay: Proliferation assay (MTT), F3II cells; type: cell-based; conditions: Mus musculus, 72 h, 10% FBS
Protocol: as §1, §2, §3

[7] = biological target: T2, Rac-Tiam complex (Homo sapiens, UniProt P63000); assay: Precipitation affinity of Tiam with recombinant GST-Rac (Western Blot anti Tiam1); type: binding; conditions: Western Blot anti Tiam1 vs. control, FIG. 2
T2 construct: GST
Protocol: Compounds (65) and (25) were tested in order to determine its inhibition power over the interaction Rac-Tiam. Thus, the precipitation affinity of Tiam with the recombinant protein GST-Rac was evaluated in presence of compound (65).

[8] = tested on: MCF7 (human mammary carcinoma); assay: Proliferation assay (MTT), MCF7 cells; type: cell-based; conditions: 72 h, 10% FBS, average of three experiments
Protocol: as §1, §2, §3

[9] = tested on: LN229 cells; assay: Cell cycle effect by flow cytometry; type: cell-based, human
Protocol: The effect of compound (65) on the cell cycle was studied by flow citometry. It is known that Rac1 GTPase is related with transcription of molecules such as cyclin D1, which are required to progress from G1 phase to S phase. Inhibition of Rac1 induces cell arrest in G0-G1 phase.
LN229 cells synchronized in G0-G1 phase and stimulated for 24 hours with FBS were treated with compound (65).

[10] = tested on: 3LL (murine lung carcinoma); assay: Proliferation assay (MTT), 3LL cells; type: cell-based; conditions: Mus musculus, 72 h, 10% FBS, average of three experiments
Protocol: as §1, §2, §3

[11] = tested on: H125 (human lung carcinoma); assay: Proliferation assay (MTT), H125 cells; type: cell-based; conditions: NCI-H125, 72 h, 10% FBS, average of three experiments
Protocol: as §1, §2, §3

[12] = tested on: PC3 (human prostate adenocarcinoma); assay: Proliferation assay (MTT), PC3 cells; type: cell-based; conditions: PC-3, 72 h, 10% FBS, average of three experiments
Protocol: as §1, §2, §3

[13] = tested on: LN229 human glioblastoma cells; assay: Trans-well migration assay; type: cell-based; conditions: 10 μM, 50 μM and 100 μM, 24 hours, FIG. 6
Protocol: Cell motility is a key process in the invasion and tumor metastasis processes and it is closely regulated by the Rho-GTPases family, particularly by Rac. This assay consists in the determination of the antimigration effect of compound (65) on LN229 human glioblastoma cells.
The cell migration in vitro was measured by the trans-well migration assay, wherein LN229 cells previously treated with different concentrations (10 μM, 50 μM and 100 μM) of compound (65) and serum deprived were placed on the upper layer of a cell permeable membrane of a trans-well plaque. Following an incubation perior of 24 hours, the cells migrated through the 8 μm pores of the membrane to the lower layer.

[14] = tested on: LN229 human glioblastoma cells; assay: Polymerization of actin filaments by immunofluorescence in LN229 cells; type: cell-based; conditions: LN229 starved 24 h, treated 1 hour, EGF stimulated, FIG. 5
Protocol: The effect of compound (65) over the polymerization of actin filaments was evaluated by immunofluorescence with conjugated faloidine with the fluorochrome AlexaFluor (Invitrogen). LN229 human glioblastoma cells were starvated for 24 hours, treated with compound (65) for 1 hour, and stimulated with EGF. […] An accurate sign of cellular boundaries is observed in all cells due to the cortical actin marking.

[15] = read-out: IC50 (μM) tested in LN229 cells (Table 2)

IC50 [1, 15]: 88 µM
SMILES: N=C(Nc1cccc([N+](=O)[O-])c1)Nc1ccccc1C(F)(F)F [(41), N-(3-nitrophenyl)-N′-[2-(trifluoromethyl)phenyl]guanidine]

melting point: 108 to 109 °C
IC50 [1, 15]: 211 µM
SMILES: N=C(Nc1ccccc1)Nc1ccccc1C(F)(F)F [(27), N-phenyl-N′-[2-(trifluoromethyl)phenyl]guanidine]

SMILES: Cc1cc(C)cc(NC(=N)Nc2ccccc2C(F)(F)F)c1 [Compound (25), N-(3,5-dimethylphenyl)-N′-[2-(trifluoromethyl)phenyl]guanidine]
Reduction of the formation of metastatic lung colonies [2]: about 35%
Changes in animal weight compared to the control group [3]: no significant changes in animal weight
Tolerability [3]: well tolerated
Effect over the intracellular active Rac levels (Rac-GTP) [4]: inhibitory effect
IC50 ([5]; read-out: IC50 values, MDA-MB-231 (Table 3)): 40 µM
IC50 ([6]; read-out: IC50 values, F3II (Table 3)): 36 µM
IC50 [1, 15]: 73 µM

Effect over the intracellular active Rac levels (Rac-GTP) [4]: inhibitory effect
IC50 [8]: 44 µM
IC50 ([5]; average of three experiments, read-out: IC50 values, MDA-MB-231): 48 µM
IC50 ([6]; average of three experiments, read-out: IC50 values, F3II): 61 µM
IC50 [10]: 68 µM
IC50 [11]: 127 µM
IC50 ([1]; average of three experiments, read-out: IC50 values, LN229): 73 µM
IC50 [12]: 138 µM
SMILES: Cc1cc(C)nc(NC(=N)Nc2ccccc2C(F)(F)F)n1 [Compound (65), N-[4,6-bis(methyl)pyrimidin-2-yl]-N′-[2-(trifluoromethyl)phenyl]guanidine]
Effect over Rac-Tiam complex (Rac interaction with the activator) [7]: decrease of Rac interaction with the activator
Cell population in G0-G1 phase ([9]; 50 μM, LN229 synchronized in G0-G1, stimulated 24 hours with FBS, controls 25%): 60%
Cell cycle arrest ([9]; LN229 cells, FIG. 7): arrests tumoral cells in G0-G1 phase in a dose dependent manner
Cell migration [13]: significantly decreased the cell migration in a dose dependent manner
Intracellular fibrillar actin levels [14]: decreasing of intracellular fibrilar actin levels

melting point: 129 °C
IC50 [1, 15]: 175 µM
SMILES: Cc1ccccc1NC(=N)Nc1ccccc1C(F)(F)F [(64), N-(2-methylphenyl)-N′-[2-(trifluoromethyl)phenyl]guanidine]

From patent publication US9745257B2, “Phenyl-guanidine derivatives” (Universidad Nacional de Quilmes, priority 2011, dated 2017)
